Reference: PubChem BioAssay (NCI)
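Grown in 96-well plates, cells were treated for 48 hours with each compound at five concentrations. Insufficient inhibition: endpoint recorded as highest concentration tested. Here, GI50 denotes the concentration required for 50% inhibition of growth. TGI: concentration producing complete growth inhibition.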

Experiments:
Assay in all cases: NCI-60 cell line screen, 48 h
OVCAR-4 ovarian = system: OVCAR-4 ovarian
U251 CNS = system: U251 CNS
MCF7 breast = system: MCF7 breast
OVCAR-5 ovarian = system: OVCAR-5 ovarian
PC-3 prostate = system: PC-3 prostate
MDA-MB-231 breast = system: MDA-MB-231 breast
UO-31 renal = system: UO-31 renal
COLO 205 colon = system: COLO 205 colon
CAKI-1 renal = system: CAKI-1 renal
ACHN renal = system: ACHN renal
SW-620 colon = system: SW-620 colon
T-47D breast = system: T-47D breast
RPMI-8226 leukemia = system: RPMI-8226 leukemia
TK-10 renal = system: TK-10 renal
NCI/ADR-RES ovarian = system: NCI/ADR-RES ovarian
CCRF-CEM leukemia = system: CCRF-CEM leukemia
SF-268 CNS = system: SF-268 CNS
HOP-62 NSCLC = system: HOP-62 NSCLC
OVCAR-8 ovarian = system: OVCAR-8 ovarian
UACC-257 melanoma = system: UACC-257 melanoma
HL-60(TB) leukemia = system: HL-60(TB) leukemia
SNB-75 CNS = system: SNB-75 CNS
HCT-15 colon = system: HCT-15 colon
MALME-3M melanoma = system: MALME-3M melanoma
UACC-62 melanoma = system: UACC-62 melanoma
KM12 colon = system: KM12 colon
SR leukemia = system: SR leukemia
HCC-2998 colon = system: HCC-2998 colon
HCT-116 colon = system: HCT-116 colon
A549 NSCLC = system: A549 NSCLC
HOP-92 NSCLC = system: HOP-92 NSCLC
OVCAR-3 ovarian = system: OVCAR-3 ovarian
SF-295 CNS = system: SF-295 CNS
LOX IMVI melanoma = system: LOX IMVI melanoma
SNB-19 CNS = system: SNB-19 CNS
786-0 renal = system: 786-0 renal
SK-MEL-28 melanoma = system: SK-MEL-28 melanoma
HT29 colon = system: HT29 colon
BT-549 breast = system: BT-549 breast
SK-OV-3 ovarian = system: SK-OV-3 ovarian
NCI-H23 lung = system: NCI-H23 lung
MDA-MB-435 = system: MDA-MB-435
NCI-H522 lung = system: NCI-H522 lung
SK-MEL-2 melanoma = system: SK-MEL-2 melanoma
HS 578T breast = system: HS 578T breast
IGROV1 ovarian = system: IGROV1 ovarian
RXF 393 renal = system: RXF 393 renal
SN12C renal = system: SN12C renal
A498 renal = system: A498 renal
SF-539 CNS = system: SF-539 CNS
EKVX NSCLC = system: EKVX NSCLC
MDA-MB-468 breast = system: MDA-MB-468 breast
NCI-H460 lung = system: NCI-H460 lung
DU-145 prostate = system: DU-145 prostate
M14 melanoma = system: M14 melanoma
MOLT-4 leukemia = system: MOLT-4 leukemia
NCI-H226 lung = system: NCI-H226 lung
SK-MEL-5 melanoma = system: SK-MEL-5 melanoma
K-562 leukemia = system: K-562 leukemia

## COc1cccc(/C=C/c2nc3ccccc3c(=O)n2CC(=O)Nc2ccccc2)c1
OVCAR-4 ovarian
  GI50: 6.87 µM
  TGI: > 100 µM
U251 CNS
  GI50: 4.87 µM
  TGI: 19 µM
MCF7 breast
  GI50: 27 µM
  TGI: > 100 µM
OVCAR-5 ovarian
  GI50: 19.3 µM
  TGI: > 100 µM
PC-3 prostate
  GI50: > 100 µM
  TGI: > 100 µM
MDA-MB-231 breast
  GI50: 5.97 µM
  TGI: 20.7 µM
UO-31 renal
  GI50: 2.89 µM
  TGI: 14.1 µM
COLO 205 colon
  GI50: > 100 µM
  TGI: > 100 µM
CAKI-1 renal
  GI50: 4.31 µM
  TGI: 30.1 µM
ACHN renal
  GI50: 3.47 µM
  TGI: 12.5 µM
SW-620 colon
  GI50: > 100 µM
  TGI: > 100 µM
T-47D breast
  GI50: 2.76 µM
  TGI: 18.6 µM
RPMI-8226 leukemia
  GI50: > 100 µM
  TGI: > 100 µM
TK-10 renal
  GI50: 9.51 µM
  TGI: 30 µM
NCI/ADR-RES ovarian
  GI50: 7.72 µM
  TGI: 64.9 µM
CCRF-CEM leukemia
  GI50: > 100 µM
  TGI: > 100 µM
SF-268 CNS
  GI50: 36.8 µM
  TGI: > 100 µM
HOP-62 NSCLC
  GI50: 3.89 µM
  TGI: 14.4 µM
OVCAR-8 ovarian
  GI50: 18.8 µM
  TGI: > 100 µM
UACC-257 melanoma
  GI50: > 100 µM
  TGI: > 100 µM
HL-60(TB) leukemia
  GI50: > 100 µM
  TGI: > 100 µM
SNB-75 CNS
  GI50: 3.15 µM
  TGI: 18.1 µM
HCT-15 colon
  GI50: 39.9 µM
  TGI: > 100 µM
MALME-3M melanoma
  GI50: 12.1 µM
  TGI: 65.7 µM
UACC-62 melanoma
  GI50: 88.5 µM
  TGI: > 100 µM
KM12 colon
  GI50: > 100 µM
  TGI: > 100 µM
SR leukemia
  GI50: > 100 µM
  TGI: > 100 µM
HCC-2998 colon
  GI50: > 100 µM
  TGI: > 100 µM
HCT-116 colon
  GI50: 5.48 µM
  TGI: 56 µM
A549 NSCLC
  GI50: 3.81 µM
  TGI: > 100 µM
HOP-92 NSCLC
  GI50: 11 µM
  TGI: 51.3 µM
OVCAR-3 ovarian
  GI50: 17.6 µM
  TGI: > 100 µM
SF-295 CNS
  GI50: 5.23 µM
  TGI: 28.6 µM
LOX IMVI melanoma
  GI50: 5.94 µM
  TGI: > 100 µM
SNB-19 CNS
  GI50: 21.7 µM
  TGI: > 100 µM
786-0 renal
  GI50: 3.08 µM
  TGI: 12.6 µM
SK-MEL-28 melanoma
  GI50: 61.4 µM
  TGI: > 100 µM
HT29 colon
  GI50: > 100 µM
  TGI: > 100 µM
BT-549 breast
  GI50: > 100 µM
  TGI: > 100 µM
SK-OV-3 ovarian
  GI50: 5.87 µM
  TGI: 40.9 µM
NCI-H23 lung
  GI50: 8.91 µM
  TGI: 49.3 µM
MDA-MB-435
  GI50: > 100 µM
  TGI: > 100 µM
NCI-H522 lung
  GI50: 31.6 µM
  TGI: > 100 µM
SK-MEL-2 melanoma
  GI50: > 100 µM
  TGI: > 100 µM
HS 578T breast
  GI50: 5.91 µM
  TGI: > 100 µM
IGROV1 ovarian
  GI50: 39.1 µM
  TGI: > 100 µM
RXF 393 renal
  GI50: 4.23 µM
  TGI: 50.9 µM
SN12C renal
  GI50: 6.58 µM
  TGI: > 100 µM
A498 renal
  GI50: 3.2 µM
  TGI: 14.5 µM
SF-539 CNS
  GI50: 7.51 µM
  TGI: 28.5 µM
EKVX NSCLC
  GI50: > 100 µM
  TGI: > 100 µM
MDA-MB-468 breast
  GI50: 9.17 µM
  TGI: > 100 µM
NCI-H460 lung
  GI50: 12.6 µM
  TGI: > 100 µM
DU-145 prostate
  GI50: > 100 µM
  TGI: > 100 µM
M14 melanoma
  GI50: 12.5 µM
  TGI: 56.6 µM
MOLT-4 leukemia
  GI50: > 100 µM
  TGI: > 100 µM
NCI-H226 lung
  GI50: 3.22 µM
  TGI: 15.2 µM
SK-MEL-5 melanoma
  GI50: 59.3 µM
  TGI: > 100 µM
K-562 leukemia
  GI50: > 100 µM
  TGI: > 100 µM
